Laboratory results reported in patent US4540517A, “Antibiotic TAN-420” (Takeda Chemical Industries, Ltd., priority 1982, dated 1985).
Converted amounts (≈) assume the structure as drawn. Where two headings read alike, the source gives them in different places.

Tests used:
[1] = test system: gram-positive bacteria, fungi and protozoae; assay: Antimicrobial activity (general statement); details: considered, relative to TAN-420B
[2] = test system: Micrococcus flavus IFO 3242; assay: Agar dilution assay, antimicrobial activity; format: cell-based
Experimental: (§1) The antimicrobial activity of Antibiotic TAN-420B, C, D and E was assayed by the agar dilution method using Typticase soy agar (Baltimore Biological Laboratories, U.S.A.) as the test medium.

[3] = test system: Staphylococcus aureus FDA 209P; assay: Agar dilution assay, antimicrobial activity; format: cell-based; details: FDA209P, read-out: Minimal inhibitory concentration
Experimental: as §1

[4] = test system: Bacillus subtilis PCI 219; assay: Agar dilution assay, antimicrobial activity; format: cell-based
Experimental: as §1

B. megaterium IFO 12108 = assay: Agar dilution assay, antimicrobial activity; format: cell-based; details: Priestia megaterium
Experimental: as §1

B. cereus IFO 3514 = assay: Agar dilution assay, antimicrobial activity; format: cell-based; details: Bacillus cereus
Experimental: as §1

[5] = test system: Pseudomonas aeruginosa IFO 3080; assay: Agar dilution assay, antimicrobial activity; format: cell-based
Experimental: as §1

Escherichia coli K12 = assay: Agar dilution assay, antimicrobial activity; format: cell-based
Experimental: as §1

B. brevis IFO 3331 = assay: Agar dilution assay, antimicrobial activity; format: cell-based; details: Brevibacillus brevis
Experimental: as §1

B. pumilus IFO 3813 = assay: Agar dilution assay, antimicrobial activity; format: cell-based; details: Bacillus pumilus
Experimental: as §1

Tetrahymena pyriformis W = assay: Liquid dilution assay of antiprotozoal activity; format: cell-based; details: read-out: minimal inhibitory concentration
[6] = Acute toxicity (mouse, intraperitoneal); details: in vivo, ip
Experimental: As regards the acute toxocity of Antibiotic TAN-420 (mouse, intraperitoneal), the LD50 value of TAN-420C was 200 to 400 mg/kg, that of TAN-420D was 100 mg/kg, and that of TAN-420E was 50 mg/kg. It is therefore, considered that the toxicity of Antibiotic TAN-420 is low.

[7] = Toxicity compared with herbimycin A; details: comparison in words
[8] = known from Journal of Antibiotics 32, 255-261 (1979), Tetrahedron Letters No. 44, 4323-4326 (1979); cited from earlier work
[9] = IFO3242, agar dilution, Micrococcus flavus IFO 3242, read-out: Minimal inhibitory concentration
[10] = agar dilution, Staphylococcus aureus FDA 209P
[11] = PCI219, agar dilution, Bacillus subtilis PCI 219, read-out: Minimal inhibitory concentration
[12] = IFO12108, agar dilution, B. megaterium IFO 12108, read-out: Minimal inhibitory concentration
[13] = IFO3514, agar dilution, B. cereus IFO 3514, read-out: Minimal inhibitory concentration
[14] = IFO3080, agar dilution, Pseudomonas aeruginosa IFO 3080, read-out: Minimal inhibitory concentration
[15] = agar dilution, Escherichia coli K12, read-out: Minimal inhibitory concentration
[16] = IFO3331, agar dilution, B. brevis IFO 3331, read-out: Minimal inhibitory concentration
[17] = IFO3813, agar dilution, B. pumilus IFO 3813, read-out: Minimal inhibitory concentration
[18] = liquid dilution assay, Tetrahymena pyriformis W

| Compound | MIC [2, 9] | MIC [3, 10] | MIC [4, 11] | MIC (B. megaterium IFO 12108; [12]) | MIC (B. cereus IFO 3514; [13]) | MIC [5, 14] | MIC (Escherichia coli K12; [15]) | MIC (B. brevis IFO 3331; [16]) | MIC (B. pumilus IFO 3813; [17]) | LD50 [6] | MIC (Tetrahymena pyriformis W; [18]) | toxicity relative to herbimycin A [7] | also measured |
| --- | --- | --- | --- | --- | --- | --- | --- | --- | --- | --- | --- | --- | --- |
| COC1C=CC=C(C)C(=O)Nc2cc(O)cc(c2O)C(OC)C(C)CC(O)C(O)C(C)C=C(C)C1OC(N)=O (stereo not drawn) [TAN-420A] |  |  |  |  |  |  |  |  |  |  |  |  | antimicrobial activity [1]: of the same order as that of TAN-420B |
| COC1C=CC=C(C)C(=O)NC2=CC(=O)C=C(C2=O)C(OC)C(C)CC(O)C(O)C(C)C=C(C)C1OC(N)=O (stereo not drawn) [TAN-420B] |  |  |  |  |  |  |  |  |  |  |  |  | MIC ([2]; Micrococcus flavus, IFO3242, read-out: Minimal inhibitory concentration): 25 µg/mL (≈ 45.7 µM); MIC ([3]; Staphylococcus aureus): 100 µg/mL (≈ 183 µM); MIC ([4]; Bacillus subtilis, PCI219, read-out: Minimal inhibitory concentration): > 100 µg/mL; MIC (B. megaterium IFO 12108; IFO12108, read-out: Minimal inhibitory concentration): 100 µg/mL (≈ 183 µM); MIC (B. cereus IFO 3514; IFO3514, read-out: Minimal inhibitory concentration): 100 µg/mL (≈ 183 µM); MIC ([5]; Pseudomonas aeruginosa, IFO3080, read-out: Minimal inhibitory concentration): > 100 µg/mL; MIC (Escherichia coli K12; Escherichia coli, K12, read-out: Minimal inhibitory concentration): > 100 µg/mL; MIC (B. brevis IFO 3331; IFO3331, read-out: Minimal inhibitory concentration): 50 µg/mL (≈ 91.5 µM); MIC (B. pumilus IFO 3813; IFO3813, read-out: Minimal inhibitory concentration): 100 µg/mL (≈ 183 µM); MIC (Tetrahymena pyriformis W; Tetrahymena pyriformis): 40 µg/mL (≈ 73.2 µM) |
| COC1C=CC=C(C)C(=O)Nc2cc(O)cc(c2O)C(OC)C(C)CC(OC)C(O)C(C)C=C(C)C1OC(N)=O (stereo not drawn) [TAN-420C] | 25 µg/mL (≈ 44.4 µM) | 100 µg/mL (≈ 178 µM) | > 100 µg/mL | 100 µg/mL (≈ 178 µM) | 100 µg/mL (≈ 178 µM) | > 100 µg/mL | > 100 µg/mL | 50 µg/mL (≈ 88.9 µM) | 100 µg/mL (≈ 178 µM) | 200 to 400 mg/kg | 10 µg/mL (≈ 17.8 µM) | lower than that of herbimycin A |  |
| COC1C=CC=C(C)C(=O)NC2=CC(=O)C=C(C2=O)C(OC)C(C)CC(OC)C(O)C(C)C=C(C)C1OC(N)=O (stereo not drawn) [TAN-420D] | 25 µg/mL (≈ 44.6 µM) | 100 µg/mL (≈ 178 µM) | > 100 µg/mL | 100 µg/mL (≈ 178 µM) | 100 µg/mL (≈ 178 µM) | > 100 µg/mL | > 100 µg/mL | 50 µg/mL (≈ 89.2 µM) | 100 µg/mL (≈ 178 µM) | 100 mg/kg | 4 µg/mL (≈ 7.13 µM) | lower than that of herbimycin A |  |
| COC1C=CC=C(C)C(=O)Nc2cc(O)cc(c2O)C(OC)C(C)CC(OC)C(OC)C(C)C=C(C)C1OC(N)=O (stereo not drawn) [TAN-420E] | 50 µg/mL (≈ 86.7 µM) | 100 µg/mL (≈ 173 µM) | 100 µg/mL (≈ 173 µM) | 50 µg/mL (≈ 86.7 µM) | 100 µg/mL (≈ 173 µM) | > 100 µg/mL | > 100 µg/mL | 50 µg/mL (≈ 86.7 µM) | 100 µg/mL (≈ 173 µM) | 50 mg/kg | 2 µg/mL (≈ 3.47 µM) | lower than that of herbimycin A |  |
| COC1C=CC=C(C)C(=O)NC2=CC(=O)C=C(C2=O)C(OC)C(C)CC(OC)C(OC)C(C)C=C(C)C1OC(N)=O (stereo not drawn) [herbimycin A] |  |  |  |  |  |  |  |  |  |  |  |  | herbicidal activity [8]: has herbicidal activity |
